Measured values published in paper PMC7699892, “Repositioned Drugs for Chagas Disease Unveiled via Structure-Based Drug Repositioning” (International Journal of Molecular Sciences, 2020).
One block for each molecule: values may come before it.

Legend:
T. cruzi = test system: T. cruzi; parameters: method as in per drug in column Reference of Table 2; settings: class of literature evidence of trypanocidal activity; ref per drug in Table 2; cited from earlier work; also: key: ? indicates unknown activity; + indicates indirect evidence of activity; ++ indicates direct evidence of activity
T. cruzi INC-5 strain = assay: in vivo short-term trypanocidal activity (parasitemia) in infected CD1 mice, INC-5 strain; parameters: species or system Trypanosoma cruzi in CD1 mice
Method: (§1) Parasitemia was monitored at 2, 4, 6, and 8 h after administration (see Figure 2).
(§2) CD1 strain mice, 6–8 weeks old, were used to maintain Ninoa and INC-5 strains of T. cruzi. Animals were given by the University of Science and Arts of Chiapas. To maintain the strains, animals were intraperitoneally inoculated every 14 days with 1 × 10^5 blood trypomastigote, obtained from parasite-infected mice. Parasitemia was monitored every three days by the Pizzi method. For this, 5 µL of blood from the caudal vein of infected mice were deposited on a slide and evenly distributed with an 18 × 18 mm coverslip. Parasite counting was performed by observing 15 microscopic fields using a 40 × objective lens. For the in vivo short term evaluation of the trypanocidal activity of the FDA-approved drugs, six groups of six CD1 mice each with homogeneous weight and parasitemia were used.
(§3) In vivo short-term evaluation of the trypanocidal activity of the FDA-approved drugs. Six groups of six CD1 female mice were infected with blood trypomastigotes of Ninoa and INC-5 strains following the methodology previously described in Romanha et al. and in Díaz-Chiguer et al.. At day 13 post-infection, when the infected mice reached an average of 5 × 10^6 parasites/mL, a single dose of the FDA-approved drugs at 100 mg/kg body weight was orally administered. Parasitemia was monitored following the Pizzi method at 2, 4, 6, and 8 h post-treatment […] using mineral oil as a vehicle. […] Mice examination was performed as stated in the Norma Official Mexicana (NOM-062-Z00-1999), published on August 2009.

[1] = test system: T. cruzi blood trypomastigote (Ninoa strain); assay: ex vivo evaluation against blood trypomastigotes, Ninoa strain; format: cell-based; settings: Trypanosoma cruzi, 24 h at 4 °C
Source text: (§4) The high-priority hit drugs were subjected to experimental validation in vitro, ex vivo, and in vivo, together with a cytotoxicity assay. Ninoa and INC-5 strains of T. cruzi were used in this study. The Ninoa strain was obtained in 1986 by xenodiagnoses from an acute case of Chagas’ disease in Oaxaca, Mexico, whereas the INC-5 strain was obtained in 1997 from a chronic case of Chagas’ disease in a person in Guanajuato, Mexico.
(§5) Ex vivo evaluation of different FDA-approved drugs against Trypanosoma cruzi blood trypomastigotes. The ex vivo evaluation of the trypanocidal activity of the FDA-approved drugs was carried out according to the methodology described above. Blood from parasite infected animals was obtained from intracardiac puncture and diluted with phosphate-buffered saline (PBS), pH 7.2, until a concentration of 2 × 10^6 blood trypomastigotes/mL was obtained. From this, 195 µL of blood/well was placed in a 96-well plate and incubated at 4 °C for 24 h with 5 µL of each drug tested at different concentrations (5 µg/mL to […]). […] After incubation, live parasites were counted in a Neubauer chamber and the IC50 was calculated. Three independent experiments by triplicate were performed.

[2] = test system: T. cruzi blood trypomastigote (INC-5 strain); assay: ex vivo evaluation against blood trypomastigotes, INC-5 strain; format: cell-based; settings: Trypanosoma cruzi; ex vivo, INC-5 strain, 24 h at 4 °C; read-out: T.cruzi blood trypomastigote IC50 INC-5
Source text: as §4, §5

[3] = test system: T. cruzi epimastigote (INC-5 strain); assay: in vitro evaluation against epimastigotes, INC-5 strain (resazurin); format: cell-based; settings: Trypanosoma cruzi, 48 h at 28 °C
Source text: (§6) The high-priority hit drugs were subjected to experimental validation in vitro, ex vivo, and in vivo, together with a cytotoxicity assay. Ninoa and INC-5 strains of T. cruzi were used in this study. […] In vitro evaluation of different FDA-approved drugs against Trypanosoma cruzi epimastigotes. The epimastigote stage of Ninoa and INC5 strains of T. cruzi were used to evaluated the in vitro trypanocidal activity of different FDA-approved drugs. Both strains were maintained in liver infusion tryptose (LIT) medium, supplemented with 10% fetal bovine serum (FBS) and 0.1% penicillin–streptomycin. They were preserved by transferring 1 × 10^6 parasites/mL into a new culture medium every week. […] All compounds were initially prepared at 10 mg/mL, using dimethyl sulfoxide (DMSO) as diluent. Serial dilutions were performed using complemented LIT medium until concentrations of 100 to 0.46 µg/mL of each drug were obtained. […] After the incubation period, 20 µL of 2.5 mM resazurin solution were added to each well and incubated for 3 h. All assays were carried out in triplicate.

T. cruzi Ninoa strain = assay: in vivo short-term trypanocidal activity (parasitemia) in infected CD1 mice, Ninoa strain; parameters: species or system Trypanosoma cruzi in CD1 mice
Method: as §1, §2, §3

[4] = test system: T. cruzi epimastigote (Ninoa strain); assay: in vitro evaluation against epimastigotes, Ninoa strain (resazurin); format: cell-based; settings: Trypanosoma cruzi, 48 h at 28 °C
Source text: as §6

T. cruzi epimastigotes = test system: T. cruzi epimastigotes; parameters: method as in PMID 32560043; settings: cited from earlier work

SMILES: NC(=O)c1cccnc1 [Nicotinamide]
Trypan. Activity (T. cruzi): ++

IC50 [2]: 115.2 ± 0.17 µM | IC50 [3]: 6.47 ± 0.42 µM | IC50 [4]: 7.09 ± 0.12 µM
SMILES: CC1CS(=O)(=O)CCN1/N=C/c1ccc([N+](=O)[O-])o1 (stereo not drawn) [Nifurtimox]
Parasitemia inhibition percentage over the time, 2 horas INC-5 (T. cruzi INC-5 strain; 100 mg/kg oral, 2 horas, INC-5): 100 | Parasitemia inhibition percentage over the time, 4 horas INC-5 (T. cruzi INC-5 strain; 100 mg/kg oral, 4 horas, INC-5): 66.6 | Parasitemia inhibition percentage over the time, 6 horas INC-5 (T. cruzi INC-5 strain; 100 mg/kg oral, 6 horas (first column so headed), INC-5): 55.5 | Parasitemia inhibition percentage over the time, 6 horas INC-5 (T. cruzi INC-5 strain; 100 mg/kg oral, 6 horas (second, last column so headed), INC-5): 27.7 | parasitemia inhibition (T. cruzi INC-5 strain; mice infected with INC-5 strain, single oral dose 100 mg/kg, eight hours after administration): 72.3% | IC50 [1]: 167.1 ± 0.03 µM | Parasitemia inhibition percentage over the time, 2 horas Ninoa (T. cruzi Ninoa strain; 100 mg/kg oral, 2 horas, Ninoa): 100 | Parasitemia inhibition percentage over the time, 4 horas Ninoa (T. cruzi Ninoa strain; 100 mg/kg oral, 4 horas, Ninoa): 50 | Parasitemia inhibition percentage over the time, 6 horas Ninoa (T. cruzi Ninoa strain; 100 mg/kg oral, 6 horas (first column so headed), Ninoa): 27.0 | Parasitemia inhibition percentage over the time, 6 horas Ninoa (T. cruzi Ninoa strain; 100 mg/kg oral, 6 horas (second, last column so headed), Ninoa): 22.2 | parasitemia inhibition (T. cruzi Ninoa strain; mice infected with Ninoa strain, single oral dose 100 mg/kg, eight hours after administration): 77.8%

SMILES: Cc1cn(-c2cc(NC(=O)c3ccc(C)c(Nc4nccc(-c5cccnc5)n4)c3)cc(C(F)(F)F)c2)cn1 [Nilotinib]
growth inhibitory activity on T. cruzi epimastigotes (T. cruzi epimastigotes): micromolar range

SMILES: CC(=O)O[C@H]1C(=O)[C@@]2(C)[C@H]([C@H](OC(=O)c3ccccc3)[C@]3(O)C[C@H](OC(=O)[C@H](O)[C@@H](NC(=O)c4ccccc4)c4ccccc4)C(C)=C1C3(C)C)[C@]1(OC(C)=O)CO[C@@H]1C[C@@H]2O [Paclitaxel]
Trypan. Activity (T. cruzi): ++

SMILES: Nc1nc2[nH]cc(CCc3ccc(C(=O)N[C@@H](CCC(=O)O)C(=O)O)cc3)c2c(=O)[nH]1 [Pemetrexed]
Trypan. Activity (T. cruzi): +

SMILES: CC(=O)CCCCn1c(=O)c2c(ncn2C)n(C)c1=O [Pentoxifylline]
Trypan. Activity (T. cruzi): + | IC50 [1]: > 100 µM | IC50 [2]: > 100 µM | IC50 [3]: > 400 µM | IC50 [4]: > 400 µM

SMILES: CC(=O)[C@H]1CC[C@H]2[C@@H]3CCC4=CC(=O)CC[C@]4(C)[C@H]3CC[C@]12C [Progesterone]
Trypan. Activity (T. cruzi): +

SMILES: C=C[C@H]1C[N@@]2CC[C@H]1C[C@H]2[C@H](O)c1ccnc2ccc(OC)cc12 [Quinine]
Trypan. Activity (T. cruzi): ++

SMILES: CC(N)C12CC3CC(CC(C3)C1)C2 (stereo not drawn) [Rimantadine]
Trypan. Activity (T. cruzi): ++

SMILES: CC(C)(C)NC(=O)[C@@H]1C[C@@H]2CCCC[C@@H]2CN1C[C@@H](O)[C@H](Cc1ccccc1)NC(=O)[C@H](CC(N)=O)NC(=O)c1ccc2ccccc2n1 [Saquinavir]
Trypan. Activity (T. cruzi): ++

IC50 [2]: > 100 µM | IC50 [3]: > 400 µM | IC50 [4]: > 400 µM
SMILES: Cn1c(=O)c2[nH]cnc2n(C)c1=O [Theophylline]
IC50 [1]: > 100 µM

SMILES: CSc1ccc2c(c1)N(CCC1CCCCN1C)c1ccccc1S2 (stereo not drawn) [Thioridazine]
Trypan. Activity (T. cruzi): ++

SMILES: Nc1nc2nc[nH]c2c(=S)[nH]1 [Tioguanine]
Trypan. Activity (T. cruzi): ++

SMILES: Nc1nc(N)c2nc(-c3ccccc3)c(N)nc2n1 [Triamterene]
Trypan. Activity (T. cruzi): ++

SMILES: COc1cc(Cc2cnc(N)nc2N)cc(OC)c1OC [Trimethoprim]
Trypan. Activity (T. cruzi): ++

SMILES: CC(=O)N[C@H]1[C@H]([C@H](O)[C@H](O)CO)OC(C(=O)O)=C[C@@H]1N=C(N)N [Zanamivir]
Trypan. Activity (T. cruzi): ++
